{"source": "patent US7939517B2", "about": "“1,4,6-androstatriene-3,17-dione (“ATD”) for therapeutic uses” (priority 2004, dated 2011)", "key": {"aromatase enzyme [1]": {"molecular_target": "T1, aromatase enzyme (Homo sapiens, UniProt P11511)", "T1 sequence (P11511 1-503)": "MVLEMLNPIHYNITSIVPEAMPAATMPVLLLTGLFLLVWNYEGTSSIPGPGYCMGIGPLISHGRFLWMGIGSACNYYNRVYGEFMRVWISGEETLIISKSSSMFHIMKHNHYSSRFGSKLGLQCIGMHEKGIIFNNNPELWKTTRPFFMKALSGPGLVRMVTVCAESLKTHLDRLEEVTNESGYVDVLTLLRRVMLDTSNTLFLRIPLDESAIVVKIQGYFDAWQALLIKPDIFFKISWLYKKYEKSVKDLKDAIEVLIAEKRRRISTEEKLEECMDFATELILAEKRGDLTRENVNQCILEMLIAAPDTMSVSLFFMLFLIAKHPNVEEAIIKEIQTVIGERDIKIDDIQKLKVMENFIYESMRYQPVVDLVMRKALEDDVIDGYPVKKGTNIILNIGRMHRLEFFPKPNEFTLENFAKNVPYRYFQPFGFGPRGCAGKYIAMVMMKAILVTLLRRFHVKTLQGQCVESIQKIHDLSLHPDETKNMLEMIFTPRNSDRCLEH", "test": "aromatase enzyme inhibition (Ki)", "format": "biochemical", "procedure": "ATD acts as a suicide substrate by irreversibly binding to the aromatase enzyme and shutting down its activity. Because it is a non-androgenic compound, ATD has fewer side effects associated with anabolic/androgenic steroid use. […] A lower Ki value means the inhibitor binds more tightly to the enzyme and yields greater potency. […] Because it is administered in smaller doses, costs of use of ATD may also be lower. The savings may be passed on to the consumer and/or provide greater profits to the manufacturer. Additionally, with oral or percutaneous/transdermal doses of 25 mg to 150 mg per day in men, ATD will cause a significant increase in endogenous androgen levels with little or no decrease in endogenous estrogen."}, "aromatase enzyme [2]": {"molecular_target": "T1, aromatase enzyme", "conditions": "inhibitor binding to the aromatase enzyme; from \"recent studies\"; cited from earlier work"}}, "data": [{"compound": "C[C@]12C=CC(=O)C=C1C=C[C@@H]1[C@@H]2CC[C@]2(C)C(=O)CC[C@@H]12", "note": "[ATD, 1,4,6-androstatriene-3,17-dione]", "values": [{"measurement": "ratio of the Ki values (AT concentration relative to ATD for the same effect)", "setting": "aromatase enzyme [1]", "result": 2.39, "unit": "times"}]}, {"compound": "C[C@]12CCC(=O)C=C1C(=O)C[C@@H]1[C@@H]2CC[C@]2(C)C(=O)CC[C@@H]12", "note": "[AT, androst-4-ene-3,6,17-trione]", "values": [{"measurement": "Ki", "setting": "aromatase enzyme [2]", "result": 430, "unit": "nM"}]}]}
